Measurements: patent US6767921B2, “Polymorphic forms of fasidotril, their methods of preparation and pharmaceutical compositions comprising them” (Bioproject, priority 2002, dated 2004)

Assay: thermodynamic stability of the polymorphic crystalline forms of Fasidotril
Assay type: physicochemical
Text: It has been discovered that Fasidotril can exist in various polymorphic crystalline forms which differ from each other in their physical and spectroscopic properties, their zones of thermodynamic stability and their methods of preparation. Four of these novel forms are described below and will be designated as form I, form II, form III and form IV, respectively.
It is shown that among these four forms, forms I and II are stable at low and high temperature, respectively, while forms III and IV are unstable and can be easily converted to the stable form I or II depending on the operating conditions chosen.
It is also shown that it is possible to convert form I to form II and to convert form II to form I depending on the operating conditions chosen.

CC(=O)SC[C@@H](Cc1ccc2c(c1)OCO2)C(=O)N[C@@H](C)C(=O)OCc1ccccc1 [form I, benzyl (S,S)-2-(2-acetylsulphanylmethyl-3-benzo[1,3]dioxol-5-ylpropionylamino)propionate]
stability of the polymorphic form (at low temperature): stable

CC(=O)SC[C@@H](Cc1ccc2c(c1)OCO2)C(=O)N[C@@H](C)C(=O)OCc1ccccc1 [form II, benzyl (S,S)-2-(2-acetylsulphanylmethyl-3-benzo[1,3]dioxol-5-ylpropionylamino)propionate]
stability of the polymorphic form (at high temperature): stable

CC(=O)SC[C@@H](Cc1ccc2c(c1)OCO2)C(=O)N[C@@H](C)C(=O)OCc1ccccc1 [form III, benzyl (S,S)-2-(2-acetylsulphanylmethyl-3-benzo[1,3]dioxol-5-ylpropionylamino)propionate]
stability of the polymorphic form (can be easily converted to the stable form I or II depending on the operating conditions): unstable
